Consider eleven compounds from ChEMBL document CHEMBL1201862, “PubChem BioAssay data set” (2004).

Molecules are shown by their SMILES. The source made the active and inactive calls.

Assay [1] has as its target T1, Tyrosine-protein phosphatase non-receptor type 7 (Homo sapiens, UniProt P35236).
T1 sequence (P35236 whole entry): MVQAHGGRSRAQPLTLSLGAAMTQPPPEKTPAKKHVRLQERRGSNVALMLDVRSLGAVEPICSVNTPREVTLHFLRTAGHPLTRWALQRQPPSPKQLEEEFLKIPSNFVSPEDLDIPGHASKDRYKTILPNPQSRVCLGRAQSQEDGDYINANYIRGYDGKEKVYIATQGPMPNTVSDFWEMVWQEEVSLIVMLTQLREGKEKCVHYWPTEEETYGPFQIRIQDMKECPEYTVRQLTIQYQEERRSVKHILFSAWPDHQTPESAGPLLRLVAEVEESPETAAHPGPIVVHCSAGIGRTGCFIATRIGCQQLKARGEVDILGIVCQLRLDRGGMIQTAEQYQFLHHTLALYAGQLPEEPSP
The assay is classed as functional.

For assay [2], the target named is T2, Tyrosine-protein phosphatase non-receptor type 22 (Homo sapiens, UniProt Q9Y2R2).
T2 sequence (Q9Y2R2 whole entry): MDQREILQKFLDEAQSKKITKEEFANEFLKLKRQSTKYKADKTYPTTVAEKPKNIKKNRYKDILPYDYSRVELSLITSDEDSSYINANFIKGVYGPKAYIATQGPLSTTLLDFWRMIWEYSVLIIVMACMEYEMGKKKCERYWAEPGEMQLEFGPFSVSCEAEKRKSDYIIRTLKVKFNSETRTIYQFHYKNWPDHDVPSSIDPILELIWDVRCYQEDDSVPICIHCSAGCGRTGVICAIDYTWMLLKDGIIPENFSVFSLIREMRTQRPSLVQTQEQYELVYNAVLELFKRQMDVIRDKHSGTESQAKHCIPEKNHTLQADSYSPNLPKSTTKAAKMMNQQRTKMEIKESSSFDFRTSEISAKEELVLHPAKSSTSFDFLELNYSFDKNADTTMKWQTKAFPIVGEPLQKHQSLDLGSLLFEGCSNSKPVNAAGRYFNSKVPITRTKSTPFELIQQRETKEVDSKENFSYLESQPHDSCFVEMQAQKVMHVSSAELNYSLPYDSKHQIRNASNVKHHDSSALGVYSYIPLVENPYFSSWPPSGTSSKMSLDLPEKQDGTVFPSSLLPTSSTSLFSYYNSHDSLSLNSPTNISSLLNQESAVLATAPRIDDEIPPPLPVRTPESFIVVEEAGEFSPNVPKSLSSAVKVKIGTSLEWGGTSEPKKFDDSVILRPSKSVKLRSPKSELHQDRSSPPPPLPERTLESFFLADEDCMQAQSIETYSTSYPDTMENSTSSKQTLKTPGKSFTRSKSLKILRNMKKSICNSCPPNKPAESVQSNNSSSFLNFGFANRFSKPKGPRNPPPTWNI
The assay is classed as functional.

Assay [3] concerns the target T2, Tyrosine-protein phosphatase non-receptor type 22. The format is functional. This is another data set of the same source.
In the next assay the target is T3, Bcl-2-related protein A1 (Mus musculus, UniProt Q07440).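 Further: confirmatory dose–response counterscreen on Bfl-1, used to check hits from a UBC13 polyubiquitin inhibitor campaign.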
T3 sequence (Q07440 whole entry): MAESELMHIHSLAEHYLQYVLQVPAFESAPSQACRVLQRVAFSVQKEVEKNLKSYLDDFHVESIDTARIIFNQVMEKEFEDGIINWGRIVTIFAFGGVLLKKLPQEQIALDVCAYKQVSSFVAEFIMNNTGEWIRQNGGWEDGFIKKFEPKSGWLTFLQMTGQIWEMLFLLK
The format is functional.

Assay [4] deals with T4, Ubiquitin-conjugating enzyme E2 N (Homo sapiens, UniProt P61088).
T4 sequence (P61088 whole entry): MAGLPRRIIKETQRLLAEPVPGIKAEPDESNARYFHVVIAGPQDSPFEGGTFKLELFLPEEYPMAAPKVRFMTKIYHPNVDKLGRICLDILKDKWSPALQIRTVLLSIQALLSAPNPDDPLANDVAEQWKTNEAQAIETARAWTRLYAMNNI
The assay is classed as functional.

Assay [5] deals with T4, Ubiquitin-conjugating enzyme E2 N. The format is functional. The source holds these as a separate data set.
Assay [6] deals with T5, Type-1 angiotensin II receptor (Homo sapiens, UniProt P30556).
T5 sequence (P30556 whole entry): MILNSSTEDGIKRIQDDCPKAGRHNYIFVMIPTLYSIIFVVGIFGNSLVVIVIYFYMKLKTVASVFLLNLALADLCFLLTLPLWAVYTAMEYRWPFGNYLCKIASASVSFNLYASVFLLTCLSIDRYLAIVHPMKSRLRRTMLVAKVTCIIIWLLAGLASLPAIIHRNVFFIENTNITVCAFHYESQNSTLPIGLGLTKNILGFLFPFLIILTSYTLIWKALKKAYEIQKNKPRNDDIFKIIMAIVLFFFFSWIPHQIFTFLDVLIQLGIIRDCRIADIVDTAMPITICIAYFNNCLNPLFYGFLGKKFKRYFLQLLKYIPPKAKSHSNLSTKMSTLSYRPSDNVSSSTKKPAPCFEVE
The assay is described as follows: AT1 receptor agonists, dose response, selectivity assay for APJ receptor agonist project, cell-based, uHTS hits (AID 488865).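 Further: beta-arrestin recruitment to AT1 measured by enzyme fragment complementation luminescence.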 The format is functional.

Assay [7] concerns the target T6, E3 ubiquitin-protein ligase XIAP (Homo sapiens, UniProt P98170). The assay can be described thus: Counter Screen using XIAP-Bir3 for Chemical Antagonists of Bir1/2 domains of IAP-family anti-apoptotic proteins. [Related pubchem assays (depositor defined):AID1018, AID1449, AID1514, AID1638, AID1749, AID1750, AID488957, AID488963]. In general terms: A counterscreen serves to expose hits that act by an unwanted route or on another target.

Assay [8] addresses T6, E3 ubiquitin-protein ligase XIAP. The assay can be described thus: XIAP antagonists, biochemical, IAP family, fluorescence polarization (AID 1018). The assay is classed as functional. Background: Fluorescence polarisation rises when a labelled molecule tumbles more slowly, as on binding a larger partner.
The target in assay [9] is T7, Runt-related transcription factor 1/Core-binding factor subunit beta (Homo sapiens, UniProt Q01196+Q13951). The assay is described as follows: inhibitors of RUNX1 Runt–CBFb-SMMHC binding, primary screen, biochemical, FRET, Cerulean-Runt, Venus-CBFb-SMMHC, uHTS (AID 1434).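 Further: partner is the CBFb-SMMHC leukemia fusion protein rather than wild-type CBFb.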 The format is protein assay.
T7 sequence (Q01196 whole entry, the tested form may be a part): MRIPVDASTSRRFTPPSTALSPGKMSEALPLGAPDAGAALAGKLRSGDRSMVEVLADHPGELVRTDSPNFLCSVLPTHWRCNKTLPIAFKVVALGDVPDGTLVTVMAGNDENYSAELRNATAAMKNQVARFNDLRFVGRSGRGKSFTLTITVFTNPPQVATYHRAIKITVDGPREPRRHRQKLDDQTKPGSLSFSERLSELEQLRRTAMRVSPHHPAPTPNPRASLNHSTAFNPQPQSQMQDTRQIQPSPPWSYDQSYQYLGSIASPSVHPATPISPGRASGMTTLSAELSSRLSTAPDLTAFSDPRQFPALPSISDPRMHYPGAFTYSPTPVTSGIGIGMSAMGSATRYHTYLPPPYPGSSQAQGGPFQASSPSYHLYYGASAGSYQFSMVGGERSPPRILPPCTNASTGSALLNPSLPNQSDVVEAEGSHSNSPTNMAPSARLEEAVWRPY
T7 sequence (Q13951 whole entry, the tested form may be a part): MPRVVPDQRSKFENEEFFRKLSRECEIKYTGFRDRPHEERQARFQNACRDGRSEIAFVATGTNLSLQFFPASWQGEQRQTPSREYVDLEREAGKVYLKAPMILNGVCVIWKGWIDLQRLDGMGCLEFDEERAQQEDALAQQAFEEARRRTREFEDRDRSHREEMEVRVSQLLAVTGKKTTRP
For assay [10], the target named is T7, Runt-related transcription factor 1/Core-binding factor subunit beta. The assay is described as follows: inhibitors of RUNX1 Runt–CBFb-SMMHC binding, biochemical, TR-FRET (AID 1438). The assay is classed as protein assay.
In assay [11] the target is Lysine-specific demethylase 4C (Homo sapiens, UniProt Q9H3R0). The assay can be described thus: GASC-1 (JMJD2C) histone demethylase inhibitors, dose response, biochemical, DELFIA europium, cherry-picked samples (AID 488835). The assay is classed as functional.
Sequence of Lysine-specific demethylase 4C (Q9H3R0 whole entry): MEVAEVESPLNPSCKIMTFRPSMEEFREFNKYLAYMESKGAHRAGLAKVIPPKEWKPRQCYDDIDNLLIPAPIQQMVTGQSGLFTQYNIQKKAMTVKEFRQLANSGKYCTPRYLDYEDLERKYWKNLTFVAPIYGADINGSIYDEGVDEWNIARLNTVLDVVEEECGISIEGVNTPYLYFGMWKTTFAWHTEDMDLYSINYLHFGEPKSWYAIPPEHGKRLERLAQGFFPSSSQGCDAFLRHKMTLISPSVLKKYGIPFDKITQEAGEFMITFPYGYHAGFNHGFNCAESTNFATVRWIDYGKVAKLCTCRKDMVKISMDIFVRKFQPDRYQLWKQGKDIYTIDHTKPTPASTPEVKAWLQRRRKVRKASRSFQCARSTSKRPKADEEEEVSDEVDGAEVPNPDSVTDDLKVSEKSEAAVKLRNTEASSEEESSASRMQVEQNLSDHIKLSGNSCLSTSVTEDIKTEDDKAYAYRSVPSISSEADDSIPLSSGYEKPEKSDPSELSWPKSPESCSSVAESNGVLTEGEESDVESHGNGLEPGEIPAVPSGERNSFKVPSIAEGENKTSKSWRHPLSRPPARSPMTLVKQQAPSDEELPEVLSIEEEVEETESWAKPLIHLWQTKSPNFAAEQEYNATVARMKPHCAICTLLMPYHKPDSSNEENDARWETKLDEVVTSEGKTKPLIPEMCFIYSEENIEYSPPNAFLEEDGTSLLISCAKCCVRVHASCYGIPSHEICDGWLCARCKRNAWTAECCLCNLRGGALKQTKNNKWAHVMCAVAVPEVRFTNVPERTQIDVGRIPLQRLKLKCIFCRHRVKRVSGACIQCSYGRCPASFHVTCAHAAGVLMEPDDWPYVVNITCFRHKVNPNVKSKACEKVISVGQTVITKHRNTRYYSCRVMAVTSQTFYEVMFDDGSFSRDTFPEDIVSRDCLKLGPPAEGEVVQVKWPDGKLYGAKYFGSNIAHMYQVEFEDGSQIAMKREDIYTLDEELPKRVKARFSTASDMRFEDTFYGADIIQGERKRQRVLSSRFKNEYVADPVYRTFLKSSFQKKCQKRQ
The target in assay [12] is T8, Endoribonuclease toxin MazF (Escherichia coli K-12, UniProt P0AE70).
T8 sequence (P0AE70 whole entry): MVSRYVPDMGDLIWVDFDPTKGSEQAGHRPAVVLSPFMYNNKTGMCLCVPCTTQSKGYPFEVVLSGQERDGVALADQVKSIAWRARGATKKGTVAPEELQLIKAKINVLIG
The assay can be described thus: MazF toxin RNase activators, dose response, biochemical, fluorescence, single-stranded RNA substrate, uHTS hits (AID 588481). The assay is classed as functional.

Assay [13] deals with T8, Endoribonuclease toxin MazF. The assay can be described thus: fluorescent RNA oligo signal without MazF, dose response, counter-screen for MazEF activator project, biochemical, fluorescence, single-stranded RNase substrate (AID 588502). The assay is classed as functional.
For a further assay, the target named is SUMO E1/E2 (Homo sapiens, UniProt P63279+Q9UBE0+Q9UBT2). The assay can be described thus: SAR analysis of SUMOylation using HTRF in an in-Vitro dose response assay. [Related pubchem assays (depositor defined):AID2006, AID2011, AID2018, AID2069, AID2658]. The format is functional. A general note: In TR-FRET formats the signal depends on donor and acceptor labels being close together.
Sequence of SUMO E1/E2 (Q9UBE0 whole entry): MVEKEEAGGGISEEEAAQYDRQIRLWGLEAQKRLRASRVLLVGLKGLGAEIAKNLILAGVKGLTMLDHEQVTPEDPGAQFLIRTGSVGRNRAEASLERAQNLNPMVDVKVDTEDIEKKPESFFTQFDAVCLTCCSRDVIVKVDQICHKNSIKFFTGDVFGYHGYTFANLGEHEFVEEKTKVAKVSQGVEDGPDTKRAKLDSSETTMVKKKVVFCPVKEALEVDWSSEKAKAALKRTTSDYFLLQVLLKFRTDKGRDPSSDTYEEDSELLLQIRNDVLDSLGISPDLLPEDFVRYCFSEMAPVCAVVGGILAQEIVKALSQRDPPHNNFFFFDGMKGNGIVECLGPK
Sequence of SUMO E1/E2 (Q9UBT2 whole entry): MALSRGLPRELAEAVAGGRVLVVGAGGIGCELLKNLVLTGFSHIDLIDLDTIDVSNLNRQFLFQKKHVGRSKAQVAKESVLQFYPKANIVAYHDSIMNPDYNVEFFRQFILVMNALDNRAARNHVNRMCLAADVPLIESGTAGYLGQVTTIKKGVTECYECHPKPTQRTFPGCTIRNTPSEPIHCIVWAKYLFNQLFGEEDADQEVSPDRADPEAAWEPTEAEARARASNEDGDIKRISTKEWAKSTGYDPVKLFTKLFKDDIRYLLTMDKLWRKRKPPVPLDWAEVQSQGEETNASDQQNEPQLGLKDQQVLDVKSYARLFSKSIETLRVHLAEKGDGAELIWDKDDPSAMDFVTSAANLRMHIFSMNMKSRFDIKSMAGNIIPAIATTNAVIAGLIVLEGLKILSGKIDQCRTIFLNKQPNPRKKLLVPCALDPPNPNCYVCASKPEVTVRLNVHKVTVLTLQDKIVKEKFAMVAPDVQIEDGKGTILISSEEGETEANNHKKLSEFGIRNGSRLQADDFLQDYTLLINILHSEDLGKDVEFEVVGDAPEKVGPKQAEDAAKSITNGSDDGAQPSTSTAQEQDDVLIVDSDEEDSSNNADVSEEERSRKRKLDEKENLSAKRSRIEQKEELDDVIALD
Sequence of SUMO E1/E2 (P63279 whole entry): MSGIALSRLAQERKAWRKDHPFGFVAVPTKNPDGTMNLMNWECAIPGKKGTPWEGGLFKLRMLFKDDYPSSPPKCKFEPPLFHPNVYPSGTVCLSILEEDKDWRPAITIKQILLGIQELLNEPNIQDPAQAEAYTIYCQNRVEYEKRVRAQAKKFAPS

Assay [14] deals with T9, DNA repair protein RAD52 homolog (Homo sapiens, UniProt P43351).
T9 sequence (P43351 whole entry): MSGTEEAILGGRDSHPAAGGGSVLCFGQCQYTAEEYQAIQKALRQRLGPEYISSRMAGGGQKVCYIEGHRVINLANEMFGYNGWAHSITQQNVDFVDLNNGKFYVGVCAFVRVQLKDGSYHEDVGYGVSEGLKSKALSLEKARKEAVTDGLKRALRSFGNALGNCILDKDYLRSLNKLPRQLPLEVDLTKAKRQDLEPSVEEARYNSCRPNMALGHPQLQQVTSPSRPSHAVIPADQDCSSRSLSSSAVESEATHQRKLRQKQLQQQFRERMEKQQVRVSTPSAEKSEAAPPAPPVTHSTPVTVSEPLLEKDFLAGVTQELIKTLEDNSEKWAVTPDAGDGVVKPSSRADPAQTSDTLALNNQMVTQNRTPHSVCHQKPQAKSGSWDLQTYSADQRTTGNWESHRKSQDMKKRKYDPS
The format is functional, biochemical.

For assay [15], the system named is Streptococcus sp. 'group A'. The assay is described as follows: growth inhibition of control SK(-) GAS strain, dose response, counter-screen for streptokinase expression inhibitor project, luminescence, kanamycin, BacTiterGlo, confirmation (AID 1900). The format is functional, organism-based.
The subject of another assay is Streptococcus. The assay can be described thus: Group A Streptococcus viability loss, dose response, counter-screen for streptokinase expression inhibitor project, luminescence, BacTiterGlo (AID 1915).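 Further: potency for reduction of bacterial viability or growth.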 The assay is classed as functional, organism-based.
The next assay addresses Trypsin (Sus scrofa, UniProt P00761). The assay can be described thus: porcine trypsin inhibitors, dose response, selectivity assay for Rce1 protease inhibitor project, biochemical, quenched peptide fluorescence, cherry-pick (AID 488789).
The target of a further assay is CAAX prenyl protease 1 (Saccharomyces cerevisiae S288c, UniProt P47154). The assay can be described thus: Ste24 protease inhibitors, dose response, biochemical, S. cerevisiae, plate reader, cherry-pick (AID 488815).
Sequence of CAAX prenyl protease 1 (P47154 whole entry): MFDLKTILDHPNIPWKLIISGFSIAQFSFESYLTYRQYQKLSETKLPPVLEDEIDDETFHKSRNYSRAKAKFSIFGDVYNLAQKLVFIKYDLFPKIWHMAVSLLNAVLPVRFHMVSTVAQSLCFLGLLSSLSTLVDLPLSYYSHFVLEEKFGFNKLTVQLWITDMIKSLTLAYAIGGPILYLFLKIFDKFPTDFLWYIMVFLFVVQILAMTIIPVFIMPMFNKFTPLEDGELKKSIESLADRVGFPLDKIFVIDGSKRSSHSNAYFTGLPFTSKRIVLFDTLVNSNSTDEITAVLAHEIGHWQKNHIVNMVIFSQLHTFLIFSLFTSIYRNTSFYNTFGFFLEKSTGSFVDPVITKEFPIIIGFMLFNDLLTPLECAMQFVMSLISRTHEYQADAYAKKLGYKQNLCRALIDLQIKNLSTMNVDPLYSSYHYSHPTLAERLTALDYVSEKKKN

T6 sequence (P98170 whole entry): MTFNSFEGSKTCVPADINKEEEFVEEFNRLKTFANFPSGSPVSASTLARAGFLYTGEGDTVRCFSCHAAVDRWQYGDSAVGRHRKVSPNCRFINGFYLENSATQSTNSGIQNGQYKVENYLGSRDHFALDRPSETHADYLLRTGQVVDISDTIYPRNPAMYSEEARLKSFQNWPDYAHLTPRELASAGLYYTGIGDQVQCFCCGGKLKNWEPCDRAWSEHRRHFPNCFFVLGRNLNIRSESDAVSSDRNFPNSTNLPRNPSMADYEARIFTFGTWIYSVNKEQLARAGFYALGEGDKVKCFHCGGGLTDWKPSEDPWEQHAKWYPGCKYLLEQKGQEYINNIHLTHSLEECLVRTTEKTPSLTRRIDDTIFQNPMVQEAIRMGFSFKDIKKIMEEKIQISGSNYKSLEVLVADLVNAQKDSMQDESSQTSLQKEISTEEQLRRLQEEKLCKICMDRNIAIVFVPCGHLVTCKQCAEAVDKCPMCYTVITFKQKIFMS
Sequence of Trypsin (P00761 whole entry): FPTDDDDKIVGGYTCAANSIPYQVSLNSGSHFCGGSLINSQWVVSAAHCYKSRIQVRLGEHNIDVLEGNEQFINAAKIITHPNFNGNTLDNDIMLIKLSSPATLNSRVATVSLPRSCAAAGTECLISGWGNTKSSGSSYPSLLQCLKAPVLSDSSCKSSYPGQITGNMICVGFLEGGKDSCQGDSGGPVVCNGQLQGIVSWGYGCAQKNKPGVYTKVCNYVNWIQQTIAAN

The term IC50 denotes the midpoint of a concentration-inhibition curve. `Cc1noc(NS(=O)(=O)c2ccc(NC(=O)c3nn(-c4ccccc4)ccc3=O)cc2)c1C`: the IC50 in assay [1], in assay [2] and in assay [3] was > 79.4 µM (inactive) throughout.
The EC50 is the concentration at which the effect is half-maximal. As to `CCOc1cccc2sc(N(CCCN(C)C)C(=O)c3ccc(S(=O)(=O)N(C)Cc4ccccc4)cc3)nc12`, the figures for the IC50 (at Bcl-2-related protein A1; in assay [4]; in assay [5]) were > 20 µM (inactive), 8.54 µM (active) and 8.12 µM (active), respectively. Also, in assay [6], the EC50 is > 100 µM (inactive).
Regarding `Cc1ccsc1/C=C(\C#N)C(=O)NCc1ccco1`, the IC50 in assay [7] is > 100 µM (inactive); in assay [8] it was > 100 µM (not active).
As to `CCc1ccc(C2C3=C(O)CC(C)(C)CC3=Nc3c2c(O)nc2nc(C)nn32)cc1` (stereo not drawn), the IC50 in assay [9] is 3.68 µM (active); in [10], 31.2 µM (active).
The AC50 is the midpoint of the concentration-response curve, whichever way the signal moves. With `CC1(C)OC(c2ccccc2)=C/C(=C/C=C2C(=O)NC(=S)NC2=O)O1`, the AC50 in [11] was 11.6 µM (active). In addition, the half-maximal effective concentration (EC50) in assay [12] was 11 µM (active); in [13], 13.9 µM (active).
As for `Cc1ccc2c(c1)C(c1ccccc1)N(C(=O)c1ccc(Br)o1)CC(=O)N2` (stereo not drawn), the IC50 in assay [7] is > 100 µM (inactive); in assay [8], > 100 µM (not active).
With `C=CCn1c(C)c(C=C2C(=O)NC(=O)NC2=O)c2ccccc21`, the AC50 in assay [11] is 2.9 µM (active).
`COc1ccc(CNC(=O)COC(=O)c2cc(-c3cccs3)nc3ccccc23)cc1`: the 50% inhibitory concentration (IC50) on SUMO E1/E2 is 43.3 µM (active).
As for `CCOC(=O)c1cc2c(=O)n3cccc(C)c3nc2n(Cc2ccco2)/c1=N/C(=O)c1ccccc1`, the results for the IC50 in [9] and in assay [10] were 13.1 µM (active) and > 100 µM (inactive), respectively.
`CCN(CC)CCNC(=O)c1ccc(NC(=O)c2cc(-c3ccncc3)nc3ccccc23)cc1`: the IC50 on Bcl-2-related protein A1 is > 20 µM (inactive); in assay [4], 17 µM (active); in assay [5] it was > 20 µM (inactive). For the same compound, the AC50 in assay [14] is 20.4 µM (active).
As to `CC1COc2c(N3CCN(C)CC3)c(F)cc3c(=O)c(C(=O)O)cn1c23` (stereo not drawn) [OFLOXACIN], the EC50 in [15] was 3.03 µM (active); with Streptococcus, 4.11 µM (active). The concentration at half-maximal activity (AC50) was 9.26 µM (active) at Trypsin and 1.95 µM (active) at CAAX prenyl protease 1.
